Data reported in ChEMBL document CHEMBL1142807, “Diprolyl nitriles as potent dipeptidyl peptidase IV inhibitors” (Bioorg Med Chem Lett, 2005).

Test: Inhibitory activity against Dipeptidyl peptidase IV

| Ki [µM] | Compound |
| --- | --- |
| 0.305 | N#C[C@@H]1C[C@@H]2C[C@@H]2N1C(=O)[C@@H]1CCCN1 |
| 0.492 | CC(C)(C)OC(=O)NC1CN[C@H](C(=O)N2[C@H](C#N)C[C@@H]3C[C@@H]32)C1 (single isomer, unassigned) |
| > 10 | N#C[C@@H]1C[C@@H]2C[C@@H]2N1C(=O)[C@@H]1CCCCN1 |
| > 10 | N#C[C@@H]1C[C@@H]2C[C@@H]2N1C(=O)[C@@H]1CCN1 |
| 0.29 | CC[C@H]1CCN[C@@H]1C(=O)N1[C@H](C#N)C[C@@H]2C[C@@H]21 |
| 0.057 | N#C[C@@H]1C[C@@H]2C[C@@H]2N1C(=O)[C@@H]1C[C@H](NC(=O)OCC2c3ccccc3-c3ccccc32)CN1 |

Second part, the compound before the results:

| Compound | Ki [µM] |
| --- | --- |
| CC1(C)CCN[C@@H]1C(=O)N1[C@H](C#N)C[C@@H]2C[C@@H]21 | 0.037 |
| C[C@H]1CCN[C@@H]1C(=O)N1[C@H](C#N)C[C@@H]2C[C@@H]21 | 0.126 |
| N#C[C@@H]1C[C@@H]2C[C@@H]2N1C(=O)[C@@H]1C[C@H](NS(=O)(=O)c2ccc(Cl)cc2)CN1 | 0.039 |
| N#C[C@@H]1C[C@@H]2C[C@@H]2N1C(=O)[C@@H]1C[C@@H]2C[C@@H]2N1 | > 10 |
| N#C[C@@H]1C[C@@H]2C[C@@H]2N1C(=O)[C@H]1CCCN1 | > 10 |
| CC(C)(C)OC(=O)N[C@@H]1CN[C@H](C(=O)N2[C@H](C#N)C[C@@H]3C[C@@H]32)C1 | 0.14 |
| CC(C)(C)CC(=O)N[C@@H]1CN[C@H](C(=O)N2[C@H](C#N)C[C@@H]3C[C@@H]32)C1 | 0.133 |
| N#C[C@@H]1C[C@@H]2C[C@@H]2N1C(=O)[C@H]1NC[C@@H]2C[C@@H]21 | 0.052 |

Test: Half Life at 37 degree C and 10 uM in pH 7.0 buffer
Type: ADME

| Compound | half-life at 10 µM [h] |
| --- | --- |
| N#Cc1ccc(NC2CN[C@H](C(=O)N3[C@H](C#N)C[C@@H]4C[C@@H]43)C2)cc1Cl (stereo not given in full) | 15 |
